Experimental data as given in PubChem BioAssay (NCI).
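These data come from cells grown in 96-well plates and exposed to compound for 48 hours at five concentrations. Abbreviation: GI50, concentration required for 50% inhibition of growth. TGI is the concentration that stops growth completely.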

Assays:
Assay in all cases: NCI anticancer screen, dose series, 48 h
[1] = tested on: MOLT-4 leukemia
[2] = tested on: HCT-15 colon
[3] = tested on: SW-620 colon
[4] = tested on: HT29 colon
[5] = tested on: NCI-H522 lung
[6] = tested on: SF-268 CNS
[7] = tested on: LOX IMVI melanoma
[8] = tested on: DU-145 prostate
[9] = tested on: SF-539 CNS
[10] = tested on: HCC-2998 colon
[11] = tested on: HL-60(TB) leukemia
[12] = tested on: SNB-75 CNS
[13] = tested on: 786-0 renal
[14] = tested on: CAKI-1 renal
[15] = tested on: MDA-MB-231 breast
[16] = tested on: IGROV1 ovarian
[17] = tested on: SK-OV-3 ovarian
[18] = tested on: MALME-3M melanoma
[19] = tested on: NCI-H226 lung
[20] = tested on: CCRF-CEM leukemia
[21] = tested on: M14 melanoma
[22] = tested on: HOP-92 NSCLC
[23] = tested on: RPMI-8226 leukemia
[24] = tested on: OVCAR-8 ovarian
[25] = tested on: HOP-62 NSCLC
[26] = tested on: SR leukemia
[27] = tested on: SK-MEL-5 melanoma
[28] = tested on: PC-3 prostate
[29] = tested on: SN12C renal
[30] = tested on: ACHN renal
[31] = tested on: NCI-H460 lung
[32] = tested on: BT-549 breast
[33] = tested on: UO-31 renal
[34] = tested on: KM12 colon
[35] = tested on: A498 renal
[36] = tested on: NCI/ADR-RES ovarian
[37] = tested on: RXF 393 renal
[38] = tested on: MDA-MB-435
[39] = tested on: OVCAR-5 ovarian

Question: For `Cc1ccc(-c2cc3nc(C(Cl)Cl)nc(-c4ccco4)n3n2)cc1`, which GI50 [1] is on record?
Answer: Its GI50 is greater than 100000 nM.

Question: And the TGI [1]?
Answer: The TGI was greater than 100000 nM.

Question: And the GI50 [2]?
Answer: The GI50 was 845 nM.

Question: What about the TGI [2] of the same compound?
Answer: Its TGI is greater than 100000 nM.

Question: And the GI50 [3]?
Answer: The GI50 was 583 nM.

Question: And the TGI [3]?
Answer: Its TGI is greater than 100000 nM.

Question: And the GI50 [4]?
Answer: Its GI50 is 328 nM.

Question: What about the TGI [4] of the same compound?
Answer: The TGI was 1230 nM.

Question: And the GI50 [5]?
Answer: Its GI50 is greater than 100000 nM.

Question: And the TGI [5]?
Answer: The TGI was greater than 100000 nM.

Question: What about the GI50 [6] of the same compound?
Answer: Its GI50 is 1650 nM.

Question: And the TGI [6]?
Answer: Its TGI is greater than 100000 nM.

Question: What about the GI50 [7] of the same compound?
Answer: Its GI50 is greater than 100000 nM.

Question: What about the TGI [7] of the same compound?
Answer: The TGI was greater than 100000 nM.

Question: What about the GI50 [8] of the same compound?
Answer: Its GI50 is 404 nM.

Question: What about the TGI [8] of the same compound?
Answer: Its TGI is 2350 nM.

Question: What about the GI50 [9] of the same compound?
Answer: Its GI50 is 927 nM.

Question: What about the TGI [9] of the same compound?
Answer: Its TGI is 3330 nM.

Question: What about the GI50 [10] of the same compound?
Answer: The GI50 was 321 nM.

Question: What about the TGI [10] of the same compound?
Answer: Its TGI is 1400 nM.

Question: And the GI50 [11]?
Answer: The GI50 was 348 nM.

Question: What about the TGI [11] of the same compound?
Answer: The TGI was 3250 nM.

Question: And the GI50 [12]?
Answer: The GI50 was 186 nM.

Question: And the TGI [12]?
Answer: The TGI was 1710 nM.

Question: What about the GI50 [13] of the same compound?
Answer: Its GI50 is 2030 nM.

Question: What about the TGI [13] of the same compound?
Answer: Its TGI is greater than 100000 nM.

Question: And the GI50 [14]?
Answer: The GI50 was 832 nM.

Question: And the TGI [14]?
Answer: The TGI was 4740 nM.

Question: And the GI50 [15]?
Answer: Its GI50 is 289 nM.

Question: And the TGI [15]?
Answer: The TGI was 1850 nM.

Question: What about the GI50 [16] of the same compound?
Answer: Its GI50 is 2650 nM.

Question: And the TGI [16]?
Answer: The TGI was greater than 100000 nM.

Question: And the GI50 [17]?
Answer: The GI50 was 3090 nM.

Question: And the TGI [17]?
Answer: Its TGI is greater than 100000 nM.

Question: What about the GI50 [18] of the same compound?
Answer: Its GI50 is greater than 100000 nM.

Question: And the TGI [18]?
Answer: Its TGI is greater than 100000 nM.

Question: And the GI50 [19]?
Answer: The GI50 was greater than 100000 nM.

Question: What about the TGI [19] of the same compound?
Answer: Its TGI is greater than 100000 nM.

Question: What about the GI50 [20] of the same compound?
Answer: Its GI50 is greater than 100000 nM.

Question: What about the TGI [20] of the same compound?
Answer: Its TGI is greater than 100000 nM.

Question: And the GI50 [21]?
Answer: Its GI50 is greater than 100000 nM.

Question: And the TGI [21]?
Answer: Its TGI is greater than 100000 nM.

Question: What about the GI50 [22] of the same compound?
Answer: The GI50 was 339 nM.

Question: And the TGI [22]?
Answer: The TGI was 2690 nM.

Question: And the GI50 [23]?
Answer: The GI50 was 2380 nM.

Question: What about the TGI [23] of the same compound?
Answer: Its TGI is greater than 100000 nM.

Question: What about the GI50 [24] of the same compound?
Answer: Its GI50 is 604 nM.

Question: What about the TGI [24] of the same compound?
Answer: Its TGI is greater than 100000 nM.

Question: And the GI50 [25]?
Answer: Its GI50 is 298 nM.

Question: What about the TGI [25] of the same compound?
Answer: Its TGI is 3820 nM.

Question: And the GI50 [26]?
Answer: Its GI50 is greater than 100000 nM.

Question: What about the TGI [26] of the same compound?
Answer: The TGI was greater than 100000 nM.

Question: What about the GI50 [27] of the same compound?
Answer: Its GI50 is greater than 100000 nM.

Question: And the TGI [27]?
Answer: Its TGI is greater than 100000 nM.

Question: What about the GI50 [28] of the same compound?
Answer: Its GI50 is 506 nM.

Question: And the TGI [28]?
Answer: Its TGI is 4490 nM.

Question: What about the GI50 [29] of the same compound?
Answer: Its GI50 is greater than 100000 nM.

Question: And the TGI [29]?
Answer: The TGI was greater than 100000 nM.

Question: What about the GI50 [30] of the same compound?
Answer: Its GI50 is 273 nM.

Question: And the TGI [30]?
Answer: The TGI was 1360 nM.

Question: What about the GI50 [31] of the same compound?
Answer: The GI50 was 352 nM.

Question: And the TGI [31]?
Answer: The TGI was 1470 nM.

Question: What about the GI50 [32] of the same compound?
Answer: The GI50 was greater than 100000 nM.

Question: What about the TGI [32] of the same compound?
Answer: Its TGI is greater than 100000 nM.

Question: And the GI50 [33]?
Answer: The GI50 was 523 nM.

Question: And the TGI [33]?
Answer: The TGI was 3990 nM.

Question: What about the GI50 [34] of the same compound?
Answer: The GI50 was 1810 nM.

Question: What about the TGI [34] of the same compound?
Answer: The TGI was 5520 nM.

Question: Which GI50 [9] does the source give for `Cc1[nH]c(C(=O)Nc2ccccc2OCc2cccc(C(=O)NC3CCCNC3)c2)c(Cl)c1Cl` (stereo unspecified) here?
Answer: The GI50 was 1690 nM.

Question: What about the TGI [9] of the same compound?
Answer: Its TGI is 3150 nM.

Question: And the GI50 [10]?
Answer: The GI50 was 2010 nM.

Question: And the TGI [10]?
Answer: The TGI was 3730 nM.

Question: What about the GI50 [35] of the same compound?
Answer: Its GI50 is 1800 nM.

Question: And the TGI [35]?
Answer: The TGI was 5590 nM.

Question: And the GI50 [36]?
Answer: Its GI50 is 2960 nM.

Question: What about the TGI [36] of the same compound?
Answer: The TGI was 9880 nM.

Question: And the GI50 [15]?
Answer: The GI50 was 1750 nM.

Question: And the TGI [15]?
Answer: The TGI was 3380 nM.

Question: And the GI50 [17]?
Answer: The GI50 was 8910 nM.

Question: And the TGI [17]?
Answer: The TGI was 26900 nM.

Question: And the GI50 [37]?
Answer: The GI50 was 1480 nM.

Question: And the TGI [37]?
Answer: The TGI was 3100 nM.

Question: And the GI50 [19]?
Answer: Its GI50 is 2010 nM.

Question: What about the TGI [19] of the same compound?
Answer: Its TGI is 5310 nM.

Question: What about the GI50 [38] of the same compound?
Answer: Its GI50 is 1740 nM.

Question: And the TGI [38]?
Answer: The TGI was 3240 nM.

Question: And the GI50 [27]?
Answer: Its GI50 is 1710 nM.

Question: What about the TGI [27] of the same compound?
Answer: Its TGI is 3110 nM.

Question: What about the GI50 [29] of the same compound?
Answer: The GI50 was 1900 nM.

Question: What about the TGI [29] of the same compound?
Answer: Its TGI is 3720 nM.

Question: And the GI50 [30]?
Answer: Its GI50 is 1660 nM.

Question: What about the TGI [30] of the same compound?
Answer: Its TGI is 3110 nM.

Question: And the GI50 [32]?
Answer: The GI50 was 2630 nM.

Question: And the TGI [32]?
Answer: Its TGI is 9750 nM.

Question: What about the GI50 [39] of the same compound?
Answer: Its GI50 is 1640 nM.

Question: What about the TGI [39] of the same compound?
Answer: Its TGI is 3060 nM.
